Experimental data: patent US10251394B2, “Molecules having pesticidal utility, and intermediates, compositions, and processes, related thereto” (Dow AgroSciences LLC, priority 2016, dated 2019)

Assays:
Type in all cases: in vivo
[1] = tested on: Beet Armyworm (Spodoptera exigua); assay: Bioassay on Beet Armyworm (BAW), 128-well diet tray assay; conditions: Beet Armyworm, Table ABC, read-out: BAW rating
Procedure, shortened: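 Percent mortality, averaged over eight wells, was scored after five to seven days at 25° C under 14:10 light-dark. Each well's diet carried 50 μg/cm^2 of test molecule applied in acetone-water (90:10) and dried before one to five second-instar larvae were added.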

[2] = tested on: Cabbage Looper (Trichoplusia ni); assay: Bioassay on Cabbage Looper (CL), 128-well diet tray assay; conditions: Cabbage Looper, Table ABC, read-out: CL rating
Procedure, shortened: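 Mortality after five to seven days at 25° C (14:10 photoperiod), averaged over eight wells per compound. Diet in each well carried 50 μg/cm^2 of dried test molecule and received one to five second-instar larvae.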

[3] = tested on: Green Peach Aphid (Myzus persicae); assay: Bioassay on Green Peach Aphid (GPA), foliar spray on cabbage seedlings; conditions: 72 h, Table ABC, read-out: GPA rating
Procedure: Example B: Bioassays on Green Peach Aphid (Myzus Persicae, MYZUPE) (“GPA”) Certain molecules disclosed in this document were tested against GPA using procedures described in the following example. In the reporting of the results, the “GPA & YFM Rating Table” was used (See Table Section). Cabbage seedlings grown in 3-inch pots, with 2-3 small (3-5 cm) true leaves, were used as test substrate. The seedlings were infested with 20-50 GPA (wingless adult and nymph stages) one day prior to chemical application. Four pots with individual seedlings were used for each treatment. Test molecules (2 mg) were dissolved in 2 mL of acetone/methanol (1:1) solvent, forming stock solutions of 1000 ppm test molecule. The stock solutions were diluted 5× with 0.025% Tween 20 in water to obtain the solution at 200 ppm test molecule. A hand-held aspirator-type sprayer was used for spraying a solution to both sides of […] leaves until runoff. Reference plants (solvent check) were sprayed with the diluent only containing 20% by volume of acetone/methanol (1:1) solvent. Treated plants were held in a holding room for three days at approximately 25° C. and ambient relative humidity (RH) prior to grading. Evaluation was conducted by counting the number of live aphids per plant under a microscope. Percent Control was measured by using Abbott's correction formula (W. S. Abbott, “A Method of Computing the Effectiveness of an Insecticide” J. Econ. Entomol. 18 (1925), pp. 265-267) as follows. Corrected % Control=100*(X−Y)/X • where • X=No. of live aphids on solvent check plants and • Y=No. of live aphids on treated plants The results are indicated in the table entitled “Table ABC: Biological Results” (See Table Section).

[4] = tested on: Yellow Fever Mosquito (Aedes aegypti); assay: Bioassay on Yellow Fever Mosquito (YFM) larvae, 96-well plate; conditions: Table ABC
Procedure, shortened: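 About 1-day-old larvae in water with liver powder were added to wells holding compound from a 4000 ppm DMSO master diluted in 90:10 water:acetone. Plates covered and kept at room temperature for 3 days, then each well scored for mortality on a rating scale.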

Row | Compound | pest or weed control at 50 µg/cm2 [1] [%] | pest or weed control at 50 µg/cm2 [2] [%] | pest or weed control at 200 µg/mL [3] [%] | YFM rating [4]
1 | CN(CC(F)(F)F)C(=O)CNC(=O)c1ccc(/C(F)=C/C(c2ccc(Br)c(Cl)c2)C(F)(F)F)cc1C(F)(F)F (stereo not shown) [PF24, (Z)-4-(3-(4-Bromo-3-chlorophenyl)-1,4,4,4-tetrafluorobut-1-en-1-yl)-N-(2-(methyl(2,2,2-trifluoroethyl)amino)-2-oxoethyl)-2-(trifluoromethyl)benzamide] | 50 to 100 | 50 to 100 | 80 to 100 | A (80-100)
2 | C=CCc1c(Cl)cc(C(/C=C(\F)c2ccc(C(=O)N[C@H](C)C(=O)NCC(F)(F)F)c(C(F)(F)F)c2)C(F)(F)F)cc1Cl (stereo partly drawn) [F146, 4-((Z)-3-(4-Allyl-3,5-dichlorophenyl)-1,4,4,4-tetrafluorobut-1-en-1-yl)-N—((R)-1-oxo-1-((2,2,2-trifluoroethyl)amino)propan-2-yl)-2-(trifluoromethyl)benzamide] | 50 to 100 | 50 to 100 | 0 to 80 | B (More than 0-Less than 80)
3 | O=C(N[C@@H]1CON(CC(F)(F)F)C1=O)c1ccc(/C(F)=C/C(c2ccc(C(F)(F)F)c(Cl)c2)C(F)(F)F)cc1C(F)(F)F (stereo partly drawn) [F180, 4-((Z)-3-(3-Chloro-4-(trifluoromethyl)phenyl)-1,4,4,4-tetrafluorobut-1-en-1-yl)-N—((R)-3-oxo-2-(2,2,2-trifluoroethyl)isoxazolidin-4-yl)-2-(trifluoromethyl)benzamide] | 50 to 100 | 50 to 100 | 80 to 100 | –
4 | O=C(N[C@@H]1CON(CC(F)(F)F)C1=O)c1ccc(/C(F)=C/C(c2cc(F)c(F)c(F)c2)C(F)(F)F)cc1C(F)(F)F (stereo partly drawn) [F155, N—((R)-3-Oxo-2-(2,2,2-trifluoroethyl)isoxazolidin-4-yl)-4-((Z)-1,4,4,4-tetrafluoro-3-(3,4,5-trifluorophenyl)but-1-en-1-yl)-2-(trifluoromethyl)benzamide] | 50 to 100 | 50 to 100 | 80 to 100 | A (80-100)
5 | O=C(NC1(C(=O)NCC(F)(F)F)CC1)c1ccc(/C(F)=C/C(c2cc(Cl)cc(Br)c2)C(F)(F)F)cc1C(F)(F)F (stereo not shown) [PF32, (Z)-4-(3-(3-Bromo-5-chlorophenyl)-1,4,4,4-tetrafluorobut-1-en-1-yl)-N-(1-((2,2,2-trifluoroethyl)carbamoyl)cyclopropyl)-2-(trifluoromethyl)benzamide] | – | – | 0 to 80 | –
6 | O=C(N[C@@H]1CON(CC(F)(F)F)C1=O)c1ccc(/C(F)=C/C(c2cc(Cl)c(Cl)c(Cl)c2)C(F)F)cc1C(F)(F)F (stereo partly drawn) [F177, N—((R)-3-Oxo-2-(2,2,2-trifluoroethyl)isoxazolidin-4-yl)-4-((Z)-1,4,4-trifluoro-3-(3,4,5-trichlorophenyl)but-1-en-1-yl)-2-(trifluoromethyl)benzamide] | 50 to 100 | 50 to 100 | 80 to 100 | A (80-100)
7 | O=C(NC1(C(=O)NCC(F)(F)F)CC1)c1ccc(/C(F)=C/C(c2cc(Cl)c(Cl)c(Cl)c2)C(F)(F)F)cc1C(F)(F)F (stereo not shown) [F3, (Z)-4-(1,4,4,4-Tetrafluoro-3-(3,4,5-trichlorophenyl)but-1-en-1-yl)-N-(1-((2,2,2-trifluoroethyl)carbamoyl)cyclopropyl)-2-(trifluoromethyl)benzamide] | 50 to 100 | 50 to 100 | 80 to 100 | –
8 | CN(CC(F)(F)F)C(=O)CNC(=O)c1ccc(/C(F)=C/C(c2ccc(F)c(Cl)c2)C(F)(F)F)cc1C(F)(F)F (stereo not shown) [PF6, (Z)-4-(3-(3-Chloro-4-fluorophenyl)-1,4,4,4-tetrafluorobut-1-en-1-yl)-N-(2-(methyl(2,2,2-trifluoroethyl)amino]-2-oxoethyl)-2-(trifluoromethyl)benzamide] | 50 to 100 | 50 to 100 | 80 to 100 | A (80-100)
9 | O=C(CNC(=O)c1ccc(/C(F)=C/C(c2cc(F)c(F)c(F)c2)C(F)(F)F)cc1C(F)(F)F)NCC(F)(F)F (stereo not shown) [F160, (Z)—N-(2-Oxo-2-((2,2,2-trifluoroethyl)amino)ethyl)-4-(1,4,4,4-tetrafluoro-3-(3,4,5-trifluorophenyl)but-1-en-1-yl)-2-(trifluoromethyl)benzamide] | 50 to 100 | 50 to 100 | 80 to 100 | A (80-100)
10 | CCN(CC(F)(F)F)C(=O)CNC(=O)c1ccc(/C(F)=C/C(c2cc(Cl)c(Cl)c(Cl)c2)C(F)(F)F)cc1C(F)(F)F (stereo not shown) [F167, (Z)—N-(2-(ethyl(2,2,2-trifluoroethyl)amino)-2-oxoethyl)-4-(1,4,4,4-tetrafluoro-3-(3,4,5-trichlorophenyl)but-1-en-1-yl)-2-(trifluoromethyl)benzamide] | 50 to 100 | 50 to 100 | 80 to 100 | A (80-100)
11 | O=C(NC1(C(=O)NCC(F)(F)F)CC1)c1ccc(/C(F)=C/C(c2ccc(Br)c(Cl)c2)C(F)(F)F)cc1C(F)(F)F (stereo not shown) [PF27] | 50 to 100 | 50 to 100 | 80 to 100 | B (More than 0-Less than 80)
12 | Cc1cc(C(/C=C(\F)c2ccc(C(=O)NC3(C(=O)N(C)CC(F)(F)F)CC3)c(C(F)(F)F)c2)C(F)(F)F)cc(Cl)c1Cl (stereo not shown) [PF16, (Z)-4-(3-(3,4-Dichloro-5-methylphenyl)-1,4,4,4-tetrafluorobut-1-en-1-yl)-N-(1-(methyl(2,2,2-trifluoroethyl)carbamoyl)cyclopropyl)-2-(trifluoromethyl)benzamide] | 50 to 100 | 50 to 100 | 0 to 80 | A (80-100)
